Reference: publication PMC10216263, “Favorable Preclinical Pharmacological Profile of a Novel Antimalarial Pyrrolizidinylmethyl Derivative of 4-amino-7-chloroquinoline with Potent In Vitro and In Vivo Activities” (Biomolecules, 2023)
Like-named read-outs stand apart in the source and are kept apart here.

Assays:
P. yoelii NS = assay: Four-day suppressive Peters' test, oral; type: in vivo, P. yoelii in CD1 mice; conditions: once a day for 4 days, parasitemia day 4, CD1 mice
Protocol: Groups of five CD1 mice were inoculated i.v., with 4 × 10^6 infected erythrocytes/mice. Compounds, dissolved in standard suspending formula (SSV) (0.5% sodium carboxymethylcellulose, 0.5% benzyl alcohol, 0.4% Tween 80, and 0.9% NaCl), were administered once a day for 4 days via oral gavage, starting two hours post-infection. […] Parasitemia was evaluated using microscopic examination of Giemsa-stained blood films taken on day four, processed using MICROSOFT® EXCEL spreadsheets (Microsoft Corp., Redmond, WA, USA), and expressed as percentages of inhibition from the arithmetic mean parasitemia of each group in relation to the untreated group. ED50 and ED90 values were calculated using GraphPad Prism 6 (GraphPad Software Inc., La Jolla, CA, USA).

[1] = CD1, mouse, in vivo, po, 10 mg/kg
[2] = Oral DRF and systemic exposure in NHP; type: in vivo, Cynomolgus monkeys; conditions: for AUC(0-t) / Cmax / Tmax: po, 50 mg/kg/day; for half-life: plasma, Day 5, 50 mg/kg/day oral, read-out: t1/2, z (converted)
Protocol: (§1) Seven days oral DRF in rats and dog, and five days oral DRF in Non-Human Primates (NHP) were performed using Sprague Dawley rats (n = 3/time point) of both sexes, one male and one female dog Beagle (Marshall/Green Hill) and one male and one female monkeys/Cynomolgus (Noveprim Ltd., Mahebourg Mauritius,). MG3 was administered as oral suspension in 0.5% methocel in water (400 cP viscosity) at the following doses: 30, 60 and 120 mg/kg/day for 7 days (rat), 15 and 30 mg/kg/days for 7 days (dog) and 25, 50 and 75 mg/kg/day (NHP). No Observed Effects Levels (NOEL) were determined. Mortality, behavior, and general conditions were observed daily. Body weight was recorded pre-test, and on Days 1, 4 and 7. Food consumption was recorded from Days 1 to 4 and 4 to 7. Hematological and clinical chemistry examinations were performed on Day 8. All animals were sacrificed under anesthesia at the end of the treatment period on Day 8 of study. Post-mortem examinations included necropsy, collection, and histological examination performed of selected organs/tissues.

[3] = Plasma protein binding by ultrafiltration, human, rat and dog; type: in vitro ADME; conditions: male, SD (rat), Beagle (dog), read-out: free fraction
Protocol: Plasma protein binding was performed via ultrafiltration (30,000 D cutoff, Amicon, Merck) with heparinized blood samples (male SD rats, Charles River Italy, and male Beagle dogs, Marshall Farms, Europe, Lyon, France) and fresh and frozen heparinized human blood samples collected from fasted healthy male subjects (at least two subjects for plasma samples), were supplied by AAI, Germany. MG3 final concentrations of 100, 300 and 1000 ng/mL were prepared using a 10 mg/mL stock solution while control samples at the same concentrations diluted in DPBS buffer (Dulbecco’s Phosphate Buffered Saline, Sigma-Aldrich) to evaluate the recovery. […] The percentage of bound drug (% Fbound) and of unbound drug (% Ffree) was determined using the following equations: % Fbound = [(Conc. Total–Conc. Free)/Conc. […] Total is the compound concentration determined in plasma and Conc. Free is the compound concentration determined in the ultrafiltrated samples. Results were expressed as % of binding and % of free fraction (single values and mean ± SD). […] Blood to plasma ratio was calculated as: Conc. in blood/Conc. in plasma; where, Conc. is the compound concentration determined in blood and in plasma at the same time of incubation.

in vivo = conditions: CD1, mouse, po, 10 mg/kg, AUClast
[4] = system: beta-hematin (malaria pigment) formation; set-up: method as in PMID 18538567; conditions: in vitro BHIA; cited from earlier work
[5] = Tissue distribution in rat; type: in vivo, female Sprague Dawley rats; conditions: single oral 120 mg/kg
Protocol: Female Sprague Dawley rats (Charles River, Italy) (2–4/time points) were orally administered with a single dose of 120 mg/kg of MG3 at a constant dose volume of 10 mL/kg; dose and gender were selected based on previous toxicological studies. Two female rats were included as untreated controls. Plasma samples and tissues, i.e., adrenal glands, hearth, kidney, liver, lung, lymph nodes, spleen, ovaries, thymus, and skeletal muscle were collected at 4, 24, 48, 72 and 96 h after administration by animals killed by exsanguination under sodium thiopental anesthesia. Blood was put in heparinized plastic tubes kept on ice-water bath, then centrifuged (10 min, 1200 rpm, +4 °C). One aliquot of about 100 µL of plasma was stored at –80 °C until analysis. Samples of selected organs/tissues were collected, put in plastic cassettes and frozen over liquid nitrogen. Then, organs were thawed out, weighted, and sliced. Homogenates were prepared with ultrasonication on ice in Dulbecco buffer (10 μL/mg of tissue). The addition of 400 μL of methanol to 10 μL of homogenate in a 96-well plate allowed the precipitation of proteins. After capping and vortex mixing, the plate was centrifuged for 15 min at 3700 rpm at 6 °C, and an aliquot of 360 μL of supernatant transferred to a new plate and dried down under nitrogen stream (40 °C). The extract was reconstituted in 150 μL of 10 mM ammonium formate pH 3.5: methanol (90:10, v/v) and analyzed using the LC-MS-MS method, as described in Pharmacokinetic studies in rat paragraph. 1 ng/mL and 10 ng/g were the lower limits of quantitation for plasma and tissue, respectively.

7-day oral DRF in dog = type: in vivo, Beagle dog; conditions: dogs, 15 and 30 mg/kg/day oral, 7 days
Protocol: as §1

[6] = both sexes, cynomolgus monkey, in vivo
[7] = female, cynomolgus monkey, in vivo
[8] = male, cynomolgus monkey, in vivo

What does the source list for Clc1ccc2c(NCC34CCCN3CCC4)ccnc2c1 [MG3, 7-Chloro-N-((hexahydro-1H-pyrrolizin-7a-yl)methyl)quinolin-4-amine]?
ED50 (P. yoelii NS; Plasmodium yoelii, 96 h, read-out: ED50 (95% CI) Mean): 5.01 mg/kg; ED90 (95% CI) Mean (P. yoelii NS): 8.98 (6.70–12.02) mg/kg; AUClast [1]: 41,067 min*ng/mL; tolerability ([2]; NHP, 50 mg/kg/day for five consecutive days): tolerated with limited clinical signs; toxicity finding ([2]; NHP, 75 mg/kg/day oral (Phase I, incremental doses)): associated with mortality and severe CNS-related clinical signs; AUC(0-t) [2, 6]: 896 ± 132 ng·h/mL; Cmax [2, 6]: 70.1 ± 3.68 ng/mL; Tmax [2, 6]: 1.25 ± 1.06 h; MTD at 5 days ([2]; both sexes, cynomolgus monkey, in vivo, NHP, 5-day oral, read-out: maximum tolerated dose (MTD)): 50 mg/kg/day; half-life ([2]; both sexes, cynomolgus monkey, Mean ± SD of male and female NHP): 894 ± 618 min; half-life ([2]; cynomolgus monkey, Female NHP): 1330 min; half-life ([2]; cynomolgus monkey, Male NHP): 460 min; AUC(0-t) [2, 7]: 989 ng·h/mL; Cmax [2, 7]: 72.7 ng/mL; Tmax [2, 7]: 0.5 h; AUC(0-t) [2, 8]: 802 ng·h/mL; Cmax [2, 8]: 67.5 ng/mL; Tmax [2, 8]: 2 h; fraction unbound [3]: 0.16 to 0.33; AUC(0-t) (in vivo): 1030 ng·h/mL; inhibition of beta-hematin formation [4]: able to inhibit the formation of beta-hematin; tissues with the highest concentration [5]: lungs and ovaries; concentration in tissues versus plasma ([5]; all time points 4–96 h): higher than in plasma; detected in all the analyzed tissues up to ([5]; post dose): 96 h; toxicity finding (7-day oral DRF in dog): associated with mortality one week after last treatment due to acute renal failure
